Measured values from PubChem BioAssay AID292 (DTP/NCI, 2004).
Values joined by “and” are separate entries in the source; they are usually repeats but may differ in a detail not shown here. Equal values may be shown once. Inconclusive results and toxic doses are left out.

Tested on: B6C3F1 mice, ip Sarcoma M5076, median survival T/C
Experiment: NCI In Vivo Anticancer Drug Screen. Data for tumor model Sarcoma M5076 (intraperitoneal) in B6C3F1 mice
Conditions: endpoint: median survival time, higher = longer survival
Procedure, shortened: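 Tumour cells were transplanted into mice, compound or vehicle was given, survival of both groups was followed, and the treated figure was expressed over the control figure.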

[1] = dose: 25.0 mg/kg/injection, schedule: Q04DX004 (ip), vehicle: saline with Tween-80
[2] = dose: 50.0 mg/kg/injection, schedule: Q04DX004 (ip), vehicle: saline with Tween-80
[3] = dose: 100.0 mg/kg/injection, schedule: Q04DX004 (ip), vehicle: saline with Tween-80
[4] = dose: 200.0 mg/kg/injection, schedule: Q04DX004 (ip), vehicle: saline with Tween-80
[5] = dose: 400.0 mg/kg/injection, schedule: Q04DX004 (ip), vehicle: saline with Tween-80
[6] = dose: 50.0 mg/kg/injection, schedule: Q04DX004 (ip), vehicle: Klucel (hydroxypropylcellulose) (HPC)
[7] = dose: 100.0 mg/kg/injection, schedule: Q04DX004 (ip), vehicle: Klucel (hydroxypropylcellulose) (HPC)
[8] = dose: 200.0 mg/kg/injection, schedule: Q04DX004 (ip), vehicle: Klucel (hydroxypropylcellulose) (HPC)

For CC(=O)OC1C(O)C(C)OC(OC2C(OC(=O)C3CCC4C(C3)OC3(CC(OC(=O)/C=C/c5ccccc5)C(C)CO3)C43CO3)OC(C)C(O)C2OC(C)=O)C1O (stereo not given), the T/C (dose: 1.0 mg/kg/injection, schedule: Q01DX009 (ip), vehicle: saline + alcohol) was 100 % of control, the T/C (dose: 1.0 mg/kg/injection, schedule: Q04DX004 (ip), vehicle: saline + alcohol) was 107 % of control and the T/C (dose: 2.0 mg/kg/injection, schedule: Q01DX009 (ip), vehicle: saline + alcohol) was 105 % of control. For the same molecule, the T/C (dose: 2.0 mg/kg/injection, schedule: Q04DX004 (ip), vehicle: saline + alcohol) was 112 % of control, the T/C (dose: 4.0 mg/kg/injection, schedule: Q01DX009 (ip), vehicle: saline + alcohol) was 113 % of control and the T/C (dose: 4.0 mg/kg/injection, schedule: Q04DX004 (ip), vehicle: saline + alcohol) was 116 % of control. For the same molecule, the T/C (dose: 8.0 mg/kg/injection, schedule: Q01DX009 (ip), vehicle: saline + alcohol) was 121 % of control, the T/C (dose: 12.96 mg/kg/injection, schedule: Q04DX004 (ip), vehicle: saline + alcohol) was 123 % of control and the T/C (dose: 21.6 mg/kg/injection, schedule: Q04DX004 (ip), vehicle: saline + alcohol) was 115 % of control. The T/C (dose: 36.0 mg/kg/injection, schedule: Q04DX004 (ip), vehicle: saline + alcohol) was 157 % of control, the T/C (dose: 60.0 mg/kg/injection, schedule: Q04DX004 (ip), vehicle: saline + alcohol) was 116 % of control and the T/C (dose: 100.0 mg/kg/injection, schedule: Q04DX004 (ip), vehicle: saline + alcohol) was 115 % of control.
O=C(O)C1CC(O)CN1 (stereo not given) was tested, and the T/C (dose: 50.0 mg/kg/injection, schedule: Q04DX004 (ip), vehicle: suspension in saline) was 110 % of control, the T/C (dose: 100.0 mg/kg/injection, schedule: Q04DX004 (ip), vehicle: suspension in saline) was 103 % of control and the T/C (dose: 200.0 mg/kg/injection, schedule: Q04DX004 (ip), vehicle: suspension in saline) was 97 % of control. The T/C (dose: 400.0 mg/kg/injection, schedule: Q04DX004 (ip), vehicle: suspension in saline) was 102 % of control and the T/C (dose: 800.0 mg/kg/injection, schedule: Q04DX004 (ip), vehicle: suspension in saline) was 100 % of control.
For COC(=O)c1ccc(OCc2nc3ccccc3[nH]2)cc1, the T/C [1] was 95 % of control, the T/C [2] was 100 % of control and the T/C [3] was 95 % of control. For the same molecule, the T/C [4] was 89 % of control and the T/C [5] was 90 % of control.
COC(=O)c1cc(=O)c2c(ccc3oc(=O)ccc32)[nH]1 was tested, and the T/C (dose: 12.5 mg/kg/injection, schedule: Q04DX004 (ip), vehicle: saline with Tween-80) was 104 % of control, the T/C [1] was 96 % of control and the T/C [2] was 92 % of control. The T/C [3] was 89 % of control and the T/C [4] was 89 % of control.
With N#CCS(=O)(=O)c1cccc[n+]1[O-] the T/C [2] was 99 % of control, the T/C [3] was 99 % of control and the T/C [4] was 93 % of control.
In the case of O=C1NC2(CCCCC2)C(=O)N1CCN(CCCl)CCCl, the T/C (dose: 0.75 mg/kg/injection, schedule: Q01DX009 (ip), vehicle: saline with Tween-80) is reported as 111 % of control, the T/C (dose: 1.5 mg/kg/injection, schedule: Q01DX009 (ip), vehicle: saline with Tween-80) is reported as 113 % of control and the T/C (dose: 7.2 mg/kg/injection, schedule: Q01DX009 (ip), vehicle: saline with Tween-80) is reported as 154 % of control. For the same molecule, the T/C (dose: 12.0 mg/kg/injection, schedule: Q01DX009 (ip), vehicle: saline with Tween-80) was 166 % of control and 176 % of control and the T/C (dose: 20.0 mg/kg/injection, schedule: Q01DX009 (ip), vehicle: saline with Tween-80) was 244 % of control.
In the case of CC1=C(C(N)=O)C(c2ccccc2)NC(=S)N1 (stereo not given), the T/C [6] is reported as 107 % of control, the T/C [7] is reported as 99 % of control and the T/C [8] is reported as 104 % of control.
With OC1OCC(COc2ccc(Cl)cc2)OC1O (stereo not given) the T/C [2] was 103 % of control, the T/C [3] was 114 % of control and the T/C [4] was 93 % of control. The T/C [5] was 104 % of control.
With CC1[C@@H]2CC=C3[C@H]4CCC5Cc6nc7c(nc6C[C@@]5(C)C4CC(=O)[C@]32CO[C@]12OC(C)(C)CC2O)CC1CC[C@@H]2C3=C[C@H]4O[C@@]5(O[C@@](C)(CO)C[C@@H]5O)C(C)[C@@]4(O)[C@]3(C)[C@@H](O)CC2[C@]1(C)C7 (stereo not given in full) the T/C (dose: 12.5 micrograms/kg/injection, schedule: Q04DX004 (ip), vehicle: saline + alcohol) was 98 % of control, the T/C (dose: 25.0 micrograms/kg/injection, schedule: Q04DX004 (ip), vehicle: saline + alcohol) was 94 % of control and the T/C (dose: 50.0 micrograms/kg/injection, schedule: Q04DX004 (ip), vehicle: saline + alcohol) was 102 % of control. For the same molecule, the T/C (dose: 100.0 micrograms/kg/injection, schedule: Q04DX004 (ip), vehicle: saline + alcohol) was 103 % of control and 107 % of control and the T/C (dose: 200.0 micrograms/kg/injection, schedule: Q04DX004 (ip), vehicle: saline + alcohol) was 114 % of control.
CN=C(N)c1ccc(N=C(N)c2ccc(C(N)=Nc3ccc(C(N)=NC)cc3)cc2)cc1 was tested, and the T/C (dose: 3.75 mg/kg/injection, schedule: Q01DX005 (ip), vehicle: saline) was 110 % of control, the T/C (dose: 7.5 mg/kg/injection, schedule: Q01DX005 (ip), vehicle: saline) was 116 % of control and the T/C (dose: 7.5 mg/kg/injection, schedule: Q04DX004 (ip), vehicle: saline) was 88 % of control. The T/C (dose: 15.0 mg/kg/injection, schedule: Q01DX005 (ip), vehicle: saline) was 124 % of control, the T/C (dose: 15.0 mg/kg/injection, schedule: Q04DX004 (ip), vehicle: saline) was 98 % of control and the T/C (dose: 18.0 mg/kg/injection, schedule: Q01DX005 (ip), vehicle: saline) was 156 % of control. The T/C (dose: 30.0 mg/kg/injection, schedule: Q04DX004 (ip), vehicle: saline) was 109 % of control.
With Nc1ccn([C@@H]2C=C(CO)[C@@H](O)[C@H]2O)c(=O)n1 the T/C (dose: 0.13 mg/kg/injection, schedule: Q01DX013 (ip), vehicle: saline) was 96 % of control, the T/C (dose: 0.25 mg/kg/injection, schedule: Q01DX013 (ip), vehicle: saline) was 104 % of control and the T/C (dose: 0.5 mg/kg/injection, schedule: Q01DX013 (ip), vehicle: saline) was 105 % of control.
With CCCCCCC1C(C#N)C(=O)NC(=O)C1C#N (stereo not given) the T/C (dose: 40.63 mg/kg/injection, schedule: Q04DX004 (ip), vehicle: Klucel (hydroxypropylcellulose) (HPC)) was 95 % of control, the T/C (dose: 81.25 mg/kg/injection, schedule: Q04DX004 (ip), vehicle: Klucel (hydroxypropylcellulose) (HPC)) was 94 % of control and the T/C (dose: 162.5 mg/kg/injection, schedule: Q04DX004 (ip), vehicle: Klucel (hydroxypropylcellulose) (HPC)) was 101 % of control. For the same molecule, the T/C (dose: 325.0 mg/kg/injection, schedule: Q04DX004 (ip), vehicle: Klucel (hydroxypropylcellulose) (HPC)) was 92 % of control and the T/C (dose: 650.0 mg/kg/injection, schedule: Q04DX004 (ip), vehicle: Klucel (hydroxypropylcellulose) (HPC)) was 87 % of control.
For NNC(=O)c1ccncc1, the T/C (dose: 25.0 mg/kg/injection, schedule: Q04DX004 (ip), vehicle: saline) was 102 % of control, the T/C (dose: 50.0 mg/kg/injection, schedule: Q04DX004 (ip), vehicle: saline) was 102 % of control and the T/C (dose: 100.0 mg/kg/injection, schedule: Q04DX004 (ip), vehicle: saline) was 95 % of control. The T/C (dose: 200.0 mg/kg/injection, schedule: Q04DX004 (ip), vehicle: saline) was 106 % of control.
[N-]=[N+]=NCc1cnnn1C1OC(CO)C(O)C1O (stereo not given) was tested, and the T/C (dose: 37.5 mg/kg/injection, schedule: Q04DX004 (ip), vehicle: saline) was 104 % of control, the T/C (dose: 75.0 mg/kg/injection, schedule: Q04DX004 (ip), vehicle: saline) was 103 % of control and the T/C (dose: 150.0 mg/kg/injection, schedule: Q04DX004 (ip), vehicle: saline) was 104 % of control. The T/C (dose: 300.0 mg/kg/injection, schedule: Q04DX004 (ip), vehicle: saline) was 107 % of control and the T/C (dose: 600.0 mg/kg/injection, schedule: Q04DX004 (ip), vehicle: saline) was 103 % of control.
In the case of CCc1nc(N)nc(N)c1-c1ccc(Cl)c(N=[N+]=[N-])c1, the T/C (dose: 8.37 mg/kg/injection, schedule: Q04DX004 (ip), vehicle: water) is reported as 107 % of control, the T/C (dose: 16.75 mg/kg/injection, schedule: Q04DX004 (ip), vehicle: water) is reported as 108 % of control and the T/C (dose: 33.5 mg/kg/injection, schedule: Q04DX004 (ip), vehicle: distilled water + Tween-80) is reported as 102 % of control. For the same molecule, the T/C (dose: 33.5 mg/kg/injection, schedule: Q04DX004 (ip), vehicle: water) was 119 % of control, the T/C (dose: 67.0 mg/kg/injection, schedule: Q04DX004 (ip), vehicle: distilled water + Tween-80) was 109 % of control and the T/C (dose: 134.0 mg/kg/injection, schedule: Q04DX004 (ip), vehicle: distilled water + Tween-80) was 102 % of control. For the same molecule, the T/C (dose: 536.0 mg/kg/injection, schedule: Q04DX004 (ip), vehicle: distilled water + Tween-80) was 174 % of control.
For CN1C2C=CC(=O)C1C1C(=O)N(c3ccccc3)C(=O)C12 (stereo not given), the T/C [6] was 102 % of control, the T/C [7] was 96 % of control and the T/C [8] was 118 % of control.
In the case of O=c1[nH]cnc2c1cnn2CN1CCOCC1, the T/C (dose: 25.0 mg/kg/injection, schedule: Q04DX004 (ip), vehicle: Klucel (hydroxypropylcellulose) (HPC)) is reported as 99 % of control, the T/C [6] is reported as 101 % of control and the T/C [7] is reported as 98 % of control. The T/C [8] was 112 % of control.
